The values that follow are results of earlier work, collected in patent US20140220138A1, “ENHANCED NITRIC OXIDE DELIVERY AND USES THEREOF” (Albert Einstein College of Medicine of Yeshiva University, priority 2011, published 2014).

Converted amounts (≈) assume the structure as drawn.

Usually MIC90 stands for an inhibitory concentration at the 90% level, which refers to growth in some studies and to a panel of isolates in others. For `N[C@@H](CCC(=O)N[C@@H](CSN=O)C(=O)NCC(=O)O)C(=O)O` [GSNO, S-nitrosoglutathione], the MIC90 in the data set with E. coli (ATCC 25922) is 5 mM (≈ 1680 µg/mL).
With `[N]=O` [NO, nitric oxide], the “reduction in Bacillus viability” value in the data set with Bacillus subtilis (20-25 μM NO repetitively added over time) is 100 fold. Also, the “viability after exposure to NO” value with Bacillus subtilis (exposure to either 50 or 200 μM NO) is listed as “no significant loss in viability”.
